Experimental data published in patent publication US12582731B2, “Method to decontaminate solid surface” (BIOMONETA RESEARCH PVT LTD, priority 2022, dated 2026).
Several values for one entry are separate records, joined by “and”; a condition that tells them apart may be missing. Equal entries are not always repeated.

Legend:
Format in all cases: cell-based
[1] = test system: microbial load; assay: Microbial load reduction on CTAB-coated polyester cotton fabric, electric field with varying voltage; conditions: for Microbial load reduction (Log10 scale) at 10 mins: polyester cotton fabric, 0.02±0.005% w/v coating, capacitance 0.05 μF
Experimental: Another set of experiments were conducted wherein the procedure for coating of QAC (CTAB) onto the polyester cotton fabric was identical to the procedure described in Example 1. The CTAB concentration employed was 0.02±0.005% w/v and the final coated amount of QAC (CTAB) was between 0.01-0.05 mg/cm^2 of the solid surface. The electric field in this experiment was applied via. switch mode power supply (SMPS).

[2] = test system: microbial load; assay: Microbial load reduction on QAC-coated cotton cloth with or without electric field; conditions: for Microbial Load Reduction (Log10 Scale): cotton cloth coated with 0.01% w/v
Experimental: The effect of QAC coating and electric field application on flexible solid surfaces was analysed. The solid surface analysed was fabric (cotton cloth). The procedure for coating of QAC (CTAB or benzalkonium chloride) onto the cotton cloth was identical to the procedure described in Example 1. The final coated amount of QAC (CTAB or benzalkonium chloride) was between 0.01-0.05 mg/cm^2 of the solid surface. The electric field in this experiment was applied via. switch mode power supply (SMPS) with a voltage of 4 kV/cm coupled with a capacitance of 0.05 μF for various time-periods.
Reduction in microbial load was analysed using different methods.

[3] = test system: microbial load; assay: Microbial load reduction on cotton cloth coated with quaternary ammonium compound alone; conditions: no electric field
Experimental: The solid surface (cotton cloth) was suspended in a solution containing cetyltrimethylammonium bromide (CTAB) or alkyl dimethyl benzyl ammonium chloride (benzalkonium chloride) at various concentrations for about 2 hours. The solid surfaces were then heat dried in a furnace where the temperature was set at about 80° C., for about 8 hours. Once dried, the solid surfaces coated with QAC were ready to be used for various applications.
Reduction in microbial load was analysed at different concentrations of QACs.

[4] = test system: microbial load; assay: Microbial load reduction on CTAB-coated polyester cotton fabric, electric field with varying capacitance; conditions: for Microbial Load Reduction (Log10 Scale): polyester cotton fabric 90:10, 0.02±0.005% w/v coating, electric field 4 kV/cm DC
Experimental: The effect of QAC coating and varying electric field application on solid surfaces was analysed. The solid surface analysed was polyester cotton fabric in the ratio 90:10. The procedure for coating of QAC (CTAB) onto the said polyester cotton fabric was identical to the procedure described in Example 1. The CTAB concentration employed was 0.02±0.005% w/v and the final coated amount of QAC (CTAB) was between 0.01-0.05 mg/cm^2 of the solid surface. The electric field in this experiment was applied via. switch mode power supply (SMPS).

[5] = test system: microbial load; assay: Microbial load reduction on QAC-coated metal surface (aluminium plate) with or without electric field
Experimental: The effect of QAC coating and electric field application on non-flexible/hard solid surfaces was analysed. The solid surface analysed was a metal surface (aluminium plate). The coating procedure of QAC (cetrimonium salt—CTAB) was identical to the procedure described in Example 1. The final coated amount of CTAB was between 0.01-0.05 mg/cm^2 of the solid surface. The electric field in this experiment was applied via. switch mode power supply (SMPS) with a voltage of 4 kV/cm coupled with a capacitance of 0.05 μF for various time-periods.
It was observed that when the metal was coated with low concentration of cetrimonium salt (CTAB) followed by application of electric field, the subjected microbial load was completely eliminated (>7 log10 reduction in microbial load or >99.99999% reduction in microbial load) within 10 minutes [Experiment No. 4]. […] Lastly, under normal conditions, when the metal was left undisturbed, the microbial load remained largely unaltered over a period of 30 minutes [Experiment No. 1].

Compound: CCCCCCCCCCCCCCCC[N+](C)(C)C.[Br-] [CTAB, cetyltrimethylammonium bromide]
- reduction in the microbial load ([1]; coating followed by electric field at voltage lower than 2 kV/cm (0.5, 0.75, 1 or 1.25 kV/cm)): no notable reduction in the microbial load
- Microbial load reduction (Log10 scale) at 10 mins ([1]; applied voltage 0.5 kV/cm): 1.18 Log10
- Microbial load reduction (Log10 scale) at 10 mins ([1]; applied voltage 0.75 kV/cm): 1.22 Log10
- Microbial load reduction (Log10 scale) at 10 mins ([1]; applied voltage 1 kV/cm): 1.44 Log10
- Microbial load reduction (Log10 scale) at 10 mins ([1]; applied voltage 1.25 kV/cm): 1.68 Log10
- Microbial load reduction (Log10 scale) at 10 mins ([1]; applied voltage 2 kV/cm): 7.68 Log10
- Microbial load reduction (Log10 scale) at 10 mins ([1]; applied voltage 2.5 kV/cm): 8.78 Log10
- Microbial load reduction (Log10 scale) at 10 mins ([1]; applied voltage 3 kV/cm): 9.42 Log10
- log10 reduction in microbial load ([2]; coated cotton cloth not subjected to electric field, until 30 minutes (Experiment 1 Trial 1 and 3)): ≤ 2.16 log10
- Microbial Load Reduction (Log10 Scale) ([2]; With Electric Field (SMPS, 4 kV/cm, 0.05 μF), 0 mins): 0.00 Log10
- Microbial Load Reduction (Log10 Scale) ([2]; With Electric Field (SMPS, 4 kV/cm, 0.05 μF), 10 mins): 7.48 Log10 and 7.30 Log10
- Microbial Load Reduction (Log10 Scale) ([2]; With Electric Field (SMPS, 4 kV/cm, 0.05 μF), 30 mins): 7.48 Log10 and 7.30 Log10
- Microbial Load Reduction (Log10 Scale) ([2]; Without Electric Field, 0 mins): 0.00 Log10
- Microbial Load Reduction (Log10 Scale) ([2]; Without Electric Field, 10 mins): 1.09 Log10 and 1.06 Log10
- Microbial Load Reduction (Log10 Scale) ([2]; Without Electric Field, 30 mins): 2.16 Log10 and 2.15 Log10
- Microbial Load Reduction (Log10 Scale) ([3]; cotton cloth coated with 0.01% w/v, 0 mins): 0.00 Log10
- Microbial Load Reduction (Log10 Scale) ([3]; cotton cloth coated with 0.01% w/v, 10 mins): 1.11 Log10
- Microbial Load Reduction (Log10 Scale) ([3]; cotton cloth coated with 0.01% w/v, 30 mins): 2.52 Log10
- Microbial Load Reduction (Log10 Scale) ([3]; cotton cloth coated with 0.01% w/v, 45 mins): 4.35 Log10
- Microbial Load Reduction (Log10 Scale) ([3]; cotton cloth coated with 0.01% w/v, 60 mins): 7.60 Log10
- Microbial Load Reduction (Log10 Scale) ([3]; cotton cloth coated with 0.01% w/v, 90 mins): 7.60 Log10
- Microbial Load Reduction (Log10 Scale) ([3]; cotton cloth coated with 0.05% w/v, 0 mins): 0.00 Log10
- Microbial Load Reduction (Log10 Scale) ([3]; cotton cloth coated with 0.05% w/v, 10 mins): 1.18 Log10
- Microbial Load Reduction (Log10 Scale) ([3]; cotton cloth coated with 0.05% w/v, 30 mins): 2.54 Log10
- Microbial Load Reduction (Log10 Scale) ([3]; cotton cloth coated with 0.05% w/v, 45 mins): 5.12 Log10
- Microbial Load Reduction (Log10 Scale) ([3]; cotton cloth coated with 0.05% w/v, 60 mins): 7.32 Log10
- Microbial Load Reduction (Log10 Scale) ([3]; cotton cloth coated with 0.05% w/v, 90 mins): 7.32 Log10
- Microbial Load Reduction (Log10 Scale) ([3]; cotton cloth coated with 0.1% w/v, 0 mins): 0.00 Log10
- Microbial Load Reduction (Log10 Scale) ([3]; cotton cloth coated with 0.1% w/v, 10 mins): 7.41 Log10
- Microbial Load Reduction (Log10 Scale) ([3]; cotton cloth coated with 0.1% w/v, 30 mins): 7.41 Log10
- Microbial Load Reduction (Log10 Scale) ([3]; cotton cloth coated with 0.1% w/v, 45 mins): 7.41 Log10
- Microbial Load Reduction (Log10 Scale) ([3]; cotton cloth coated with 0.1% w/v, 60 mins): 7.41 Log10
- Microbial Load Reduction (Log10 Scale) ([3]; cotton cloth coated with 0.1% w/v, 90 mins): 7.41 Log10
- Microbial Load Reduction (Log10 Scale) ([3]; cotton cloth coated with 0.25% w/v, 0 mins): 0.00 Log10
- Microbial Load Reduction (Log10 Scale) ([3]; cotton cloth coated with 0.25% w/v, 10 mins): 7.45 Log10
- Microbial Load Reduction (Log10 Scale) ([3]; cotton cloth coated with 0.25% w/v, 30 mins): 7.45 Log10
- Microbial Load Reduction (Log10 Scale) ([3]; cotton cloth coated with 0.25% w/v, 45 mins): 7.45 Log10
- Microbial Load Reduction (Log10 Scale) ([3]; cotton cloth coated with 0.25% w/v, 60 mins): 7.45 Log10
- Microbial Load Reduction (Log10 Scale) ([3]; cotton cloth coated with 0.25% w/v, 90 mins): 7.45 Log10
- Microbial Load Reduction (Log10 Scale) ([3]; cotton cloth coated with 0.5% w/v, 0 mins): 0.00 Log10
- Microbial Load Reduction (Log10 Scale) ([3]; cotton cloth coated with 0.5% w/v, 10 mins): 7.00 Log10
- Microbial Load Reduction (Log10 Scale) ([3]; cotton cloth coated with 0.5% w/v, 30 mins): 7.00 Log10
- Microbial Load Reduction (Log10 Scale) ([3]; cotton cloth coated with 0.5% w/v, 45 mins): 7.00 Log10
- Microbial Load Reduction (Log10 Scale) ([3]; cotton cloth coated with 0.5% w/v, 60 mins): 7.00 Log10
- Microbial Load Reduction (Log10 Scale) ([3]; cotton cloth coated with 0.5% w/v, 90 mins): 7.00 Log10
- Microbial Load Reduction (Log10 Scale) ([3]; cotton cloth coated with 0.75% w/v, 0 mins): 0.00 Log10
- Microbial Load Reduction (Log10 Scale) ([3]; cotton cloth coated with 0.75% w/v, 10 mins): 7.78 Log10
- Microbial Load Reduction (Log10 Scale) ([3]; cotton cloth coated with 0.75% w/v, 30 mins): 7.78 Log10
- Microbial Load Reduction (Log10 Scale) ([3]; cotton cloth coated with 0.75% w/v, 45 mins): 7.78 Log10
- Microbial Load Reduction (Log10 Scale) ([3]; cotton cloth coated with 0.75% w/v, 60 mins): 7.78 Log10
- Microbial Load Reduction (Log10 Scale) ([3]; cotton cloth coated with 0.75% w/v, 90 mins): 7.78 Log10
- reduction in the microbial load ([4]; coating followed by electric field at capacitance 0.00025 μF or 0.000025 μF (Experiments 4 and 5)): a notable reduction in the microbial load was observed only around 5 minutes
- Microbial Load Reduction (Log10 Scale) ([4]; capacitance 0.000025 μF, 3 mins): 1.01 Log10
- Microbial Load Reduction (Log10 Scale) ([4]; capacitance 0.000025 μF, 4 mins): 2.09 Log10
- Microbial Load Reduction (Log10 Scale) ([4]; capacitance 0.000025 μF, 5 mins): 3.20 Log10
- Microbial Load Reduction (Log10 Scale) ([4]; capacitance 0.00025 μF, 3 mins): 1.01 Log10
- Microbial Load Reduction (Log10 Scale) ([4]; capacitance 0.00025 μF, 4 mins): 3.20 Log10
- Microbial Load Reduction (Log10 Scale) ([4]; capacitance 0.00025 μF, 5 mins): 4.44 Log10
- Microbial Load Reduction (Log10 Scale) ([4]; capacitance 0.0025 μF, 3 mins): 2.12 Log10
- Microbial Load Reduction (Log10 Scale) ([4]; capacitance 0.0025 μF, 4 mins): 3.27 Log10
- Microbial Load Reduction (Log10 Scale) ([4]; capacitance 0.0025 μF, 5 mins): 6.78 Log10
- Microbial Load Reduction (Log10 Scale) ([4]; capacitance 0.025 μF, 3 mins): 4.32 Log10
- Microbial Load Reduction (Log10 Scale) ([4]; capacitance 0.025 μF, 4 mins): 6.78 Log10
- Microbial Load Reduction (Log10 Scale) ([4]; capacitance 0.025 μF, 5 mins): 6.78 Log10
- Microbial Load Reduction (Log10 Scale) ([4]; capacitance 0.05 μF, 3 mins): 4.44 Log10
- Microbial Load Reduction (Log10 Scale) ([4]; capacitance 0.05 μF, 4 mins): 6.78 Log10
- Microbial Load Reduction (Log10 Scale) ([4]; capacitance 0.05 μF, 5 mins): 6.78 Log10
- Microbial Load Reduction (Log10 Scale) ([5]; Metal (aluminium plate) + QAC 0.01% w/v + Electric Field (SMPS, 4 kV/cm, 0.05 μF), 0 mins): 0.00 Log10
- Microbial Load Reduction (Log10 Scale) ([5]; Metal (aluminium plate) + QAC 0.01% w/v + Electric Field (SMPS, 4 kV/cm, 0.05 μF), 5 mins): 5.55 Log10
- Microbial Load Reduction (Log10 Scale) ([5]; Metal (aluminium plate) + QAC 0.01% w/v + Electric Field (SMPS, 4 kV/cm, 0.05 μF), 10 mins): 7.51 Log10
- Microbial Load Reduction (Log10 Scale) ([5]; Metal (aluminium plate) + QAC 0.01% w/v + Electric Field (SMPS, 4 kV/cm, 0.05 μF), 20 mins): 7.51 Log10
- Microbial Load Reduction (Log10 Scale) ([5]; Metal (aluminium plate) + QAC 0.01% w/v + Electric Field (SMPS, 4 kV/cm, 0.05 μF), 30 mins): 7.51 Log10
- Microbial Load Reduction (Log10 Scale) ([5]; Metal (aluminium plate) + QAC 0.01% w/v, no electric field, 0 mins): 0.00 Log10
- Microbial Load Reduction (Log10 Scale) ([5]; Metal (aluminium plate) + QAC 0.01% w/v, no electric field, 5 mins): 0.22 Log10
- Microbial Load Reduction (Log10 Scale) ([5]; Metal (aluminium plate) + QAC 0.01% w/v, no electric field, 10 mins): 0.42 Log10
- Microbial Load Reduction (Log10 Scale) ([5]; Metal (aluminium plate) + QAC 0.01% w/v, no electric field, 20 mins): 0.57 Log10
- Microbial Load Reduction (Log10 Scale) ([5]; Metal (aluminium plate) + QAC 0.01% w/v, no electric field, 30 mins): 0.95 Log10
- reduction in the microbial load ([5]; metal coated with CTAB alone, at 30 minutes (Experiment No. 3)): no significant reduction in the microbial load
